Assay results: US20130065227A1, “METHODS OF INCREASING MACROPINOCYTOSIS IN CANCER CELLS” (priority 2010, published 2013)
{Fluor} = fluorophore: 5-carboxyfluorescein (FAM) or Alexa Fluor 488

Experiments:
Assay type in all cases: cell-based
[1] = system: DU145 cells; assay: Uptake of fluorophore-labeled oligonucleotides by flow cytometry
Description: FIG. 1 are graphs showing that AS1411 cell internalization is an active process. Cells were plated 18 h before uptake analysis. After incubation as described, cells were washed with ice-cold PBS, incubated with 1 μg/ml 7-AAD, harvested and resuspended in 1% paraformaldehyde containing 2 μg/ml actinomycin D, then analyzed by flow cytometry. (Panel A) DU145 cells were incubated at 37° C. with fresh complete DMEM medium containing 10 μM FL-AS1411 (black line) or 10 μM FL-CRO (gray line) for the time indicated. (Panel B) DU145 cells were incubated for 2 h at 37° C. in complete or serum-free DMEM medium containing 10 μM FL-AS1411, or 10 μM FL-CRO, or no oligonucleotide. (Panel C) Various cell lines were incubated with 10 μM FL-AS1411 (black outline histogram), 10 μM FL-CRO (gray outline histogram) or without DNA (solid gray histogram) at 37° C. or 4° C. for 2 h. All experiments were repeated at least three times. Data are mean of three independent samples; bars, SE; *(p<0.05).
FIG. 2 are graphs showing that AS1411 is internalized by different endocytic mechanisms in DU145 cancer cells and in non-malignant Hs27 cells. DU145 or Hs27 cells were plated 18 h before uptake analysis. Cells were pre-treated as described with inhibitor (gray histogram) or the corresponding vehicle control (black histogram) before addition of 10 μM FL-AS1411 and incubation at 37° C. for 2 h. After incubation, cells were harvested and analyzed by flow cytometry. Pre-treatment conditions were at 37° C. with: (Panel A) 5 μM Cytochalasin D for 30 min; (Panel B) 80 μM Dynasore for 30 min; or (Panel C) 3 mM amiloride for 1 h. All experiments were repeated at least three times and representative data are shown. Solid gray histograms represent background autofluorescence of unstained cells.
DU145 cells were transfected for 48 h without siRNA (mock, M), or with 30 nM of one of three different nucleolin siRNAs (NCL1, NCL2, NCL3) or a control siRNA (scramble, S), or contransfected with 10 nM of each nucleolin siRNAs (mix). (Panel A) Cells were lysed and total cell lyses were analyzed by Western blotting using the antibodies shown. (Panel B) Cell-surface proteins from intact transfected DU145 cells were labeled covalently with membrane-impermeable biotinylating agent. Cells were lysed, then biotinylated plasma membrane proteins were captured with streptavidin-agarose beads and analyzed by blotting with anti-nucleolin antibody (upper panel). After stripping, the membrane was reprobed with antibodies for a plasma membrane marker (anti-pan Cadherin) and a nuclear marker (anti-histone 3) to confirm the fractionation. Total lysate (Lys) was used as control. (Panel C) The medium of transfected cells was replaced by fresh complete DMEM medium containing no oligonucleotide (gray dashed histogram) or 10 μM FL-CRO (gray solid line histogram) or 10 μM FL-AS1411 (black solid line histogram) and incubated at 37° C. for 2 h. After incubation, cells were harvested and analyzed by flow cytometry.
DU145 cells were plated 18 hr before uptake analysis. Cell medium was changed with fresh complete DMEM medium containing different concentrations of FL-AS1411 (black line) or FL-CRO (gray line), and incubated at 37° C. for 2 hrs. After incubation, cells were harvested and analyzed by flow cytometry.
FIG. 9 are graphs showing the effects of inhibitors on various endocytic pathways. DU145 or Hs27 cells were plated 18 hr before uptake analysis. (Panel A) DU145 cells were pre-treated with dynamin inhibitor, […] Dynasore (black histogram) or DMSO (gray histogram) for 30 min at 37° C. After pre-treatment, cells were treated with […] transferrin conjugated with Alexa Fluor 488 for 30 min at 37° C. (Panel B) DU145 and Hs27 cells were pre-treated with 3 mM amiloride (black histogram) or vehicle (serum-free medium, gray histogram) for 1 h at 37° C. After pre-treatment, FL-CRO was added at a concentration of 10 μM and incubated at 37° C. for 2 h. After incubation, cells were harvested and analyzed by FACS. […]

[2] = system: DU145 cells; assay: Confocal microscopy localization and co-localization
Description: FIG. 3 are photographs showing that AS1411 co-localizes with the macropinocytic marker, dextran. DU145 or Hs27 cells were incubated with the reagents indicated, then washed and fixed. Nuclei were stained with DAPI (blue). The distribution of markers was visualized by confocal microscopy and fluorescent images were overlaid to determine co-localization as indicated by the yellow color. (Panel A) 10 μM AS1411 labeled with Alexa Fluor 488 (green) and 0.2 mg/ml dextran-10K, macropinocytic marker, labeled with Alexa Fluor 594 (red) for 2 h at 37° C. (Panel B) Experiments similar to those in Panel A but using FL-CRO in place of FL-AS1411. (Panel C) Cells incubated with 5 μg/ml transferrin labeled with Alexa Fluor 488 (green) and 0.2 mg/ml dextran-10K labeled with Alexa Fluor 594 (red) for 30 min at 37° C. (Panel D) DU145 cells incubated with 5 μg/ml transferrin labeled with Alexa Fluor 594 (red) and 10 μM AS1411 labeled with Alexa Fluor 488 (green) for 30 min at 37° C. Scale bars, 10 μm.
Cells (4×10^4) in fresh supplemented culture medium were plated on 18 mm diameter glass cover slips for 18 h. The media was removed and replaced with serum-free medium containing 10 μM oligodeoxynucleotide, dextran-10K, or transferrin and incubated as describe in the Description of the Drawings. After incubation, cells were washed 3 times with ice-cold PBS, fixed in 4% paraformaldehyde in PBS for 30 min at room temperature, and washed three times with PBS. After washing, the cover slips were mounted on glass slides with ProLong Antifade (Molecular Probes) according to the manufacturer's directions to inhibit photobleaching. Immunofluorescence was documented with an LSM 510 inverted confocal laser-scanning microscope (Carl Zeiss, Oberkochen, Germany) equipped with an Omnichrome argon-krypton laser. Images were obtained with a Zeiss Plan-Apo 63× oil immersion objective (1.4 NA).

[3] = system: DU145 CD24^lo/CD44^hi cells; assay: Spheroid culture; conditions: 10 μM AS1411, drug replenished weekly
Description: DU145 CD24^lo/CD44^hi cells were sorted by FACS, plated for sphere culture, and treated with or without 10 μM AS1411. Media was changed and drug replenished weekly. Plates were monitored for dissolution of spheres. Once dissolution was observed, serial photographs were taken of each well and the total number of spheres counted.

| Substance | uptake compared with FL-AS1411 ([1]; 10 μM, 37° C., time course) | uptake compared with FL-AS1411 (confocal microscopy) ([2]; 10 μM, 2 h) | saturability of uptake (dose-response) ([1]; 37° C. for 2 hrs) | co-localization with transferrin ([2]; 5 μg/ml transferrin, 10 μM AS1411 labeled with Alexa Fluor 488, 30 min at 37° C.) | effect on spheroids [3] |
| --- | --- | --- | --- | --- | --- |
| 5′-Fluor-d(TTTCCTCCTCCTCCTTCTCCTCCTCCTCC) (DNA TTTCCTCCTCCTCCTTCTCCTCCTCCTCC; DNA, 5' {Fluor}, backbone and methylation of C not given here) [FL-CRO, reference compound] | consistently much lower than FL-AS1411 | much lower than FL-AS1411 |  |  |  |
| 5′-d(GGTGGTGGTGGTTGTGGTGGTGGTGG) [AS1411] |  |  | did not appear to have saturable uptake | non-overlapping vesicles | can cause disintegration of spheroids |
